Assay results from patent publication US20200121589A1, “COMPOSITIONS FOR DRUG DELIVERY AND METHODS OF USE THEREOF” (Viramal Limited, priority 2017, published 2020).
Several values for one entry are separate records, joined by “and”; a condition that tells them apart may be missing. Equal entries are not always repeated.

What was measured:
[1] = Danazol concentrations in serum, peritoneal fluid and peritoneal tissue after oral or vaginal administration to female human subjects; format: in vivo; settings: for Systemic, Average / Systemic: serum
Description: The following example illustrates an administering of either a vaginal or oral formulation of danazol to female human subjects. The vaginal formulation was prepared as described above in Example 2. The oral formulation contained a total dose of 200 mg of danazol present in a capsule body of titanium dioxide and gelatin, and formulated with starch, lactose, talcum and magnesium stearate.
Subjects were administered danazol daily for five days. Six subjects were given a total dose of 600 mg of the oral danazol formulation (3×200 mg) once daily for five days. Seven subjects were given the vaginal formulation containing a total of 100 mg danazol. Samples were then taken from each subject in order to determine the concentration of danazol present systemically, in peritoneal fluid, and in peritoneal tissue. In order to quantify the amount of danazol present systemically, serum samples were collected from each subject and analyzed as described above in Example 3. In order to determine the amount of danazol present in the peritoneal fluid and tissue, endometrial lesions or suspected lesions were harvested, and the amount of danazol present in the samples was quantified as described in Example 3.

[2] = in vivo; cited from earlier work
[3] = Oral - 600 mg Danazol daily for five days, average of six subjects
[4] = Oral - 600 mg Danazol daily for five days, individual subject
[5] = Vaginal - 100 mg Danazol daily for five days, average of seven subjects
[6] = Vaginal - 100 mg Danazol daily for five days, individual subject

Peritoneal Fluid, Average [1, 3]: 83.4 ng/mL | Systemic, Average [1, 3]: 156.5 ng/mL | Estimated Peritoneal Tissue, Average [1, 5]: 16.5 ng/mg | Peritoneal Fluid, Average [1, 5]: 1.2 ng/mL | Systemic, Average [1, 5]: 4.1 ng/mL
SMILES: C#C[C@]1(O)CC[C@H]2[C@@H]3CCC4=Cc5oncc5C[C@]4(C)[C@H]3CC[C@@]21C [Danazol]
Peritoneal Fluid [1, 4]: 134 ng/mL and 16.2 ng/mL and 132.8 ng/mL and 19.2 ng/mL and 130.7 ng/mL and 67.7 ng/mL | Systemic [1, 4]: 209 ng/mL and 141.3 ng/mL and 167 ng/mL and 109.7 ng/mL and 198.3 ng/mL and 113.4 ng/mL | Estimated Peritoneal Tissue [1, 6]: 8.4 ng/mg and 13.2 ng/mg and 13.6 ng/mg and 17.2 ng/mg and 16.4 ng/mg and 29.2 ng/mg and 17.6 ng/mg | Peritoneal Fluid [1, 6]: 1 ng/mL (4×) and 1.2 ng/mL and 1.6 ng/mL and 1.8 ng/mL | Systemic [1, 6]: 2.1 ng/mL and 3.3 ng/mL and 3.4 ng/mL and 4.3 ng/mL and 4.1 ng/mL and 7.3 ng/mL and 4.4 ng/mL | half-life [2]: 9.7 h
